The results in this text go back to PubChem BioAssay (NCI).

SMILES strings stand for the structures.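 1) Cells in 96-well plates. 2) Compound, 48 h, 5 concentrations. 3) Linear interpolation between surrounding doses. 4) Unreached endpoint = highest concentration. At the TGI there is no net growth.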

What all share (experiment): NCI tumour cell line growth inhibition, 48 h
For assay [1], the system named is T-47D breast.
Assay [2] has as its system NCI-H460 lung.
The subject of assay [3] is OVCAR-4 ovarian.
For assay [4], the system named is CCRF-CEM leukemia.
The test system of assay [5] is SK-MEL-5 melanoma.
Assay [6] concerns SK-OV-3 ovarian.
Assay [7] relates to M14 melanoma.
Assay [8] relates to K-562 leukemia.
The test system of assay [9] is SK-MEL-28 melanoma.
Assay [10] concerns HL-60(TB) leukemia.
The test system of assay [11] is UACC-62 melanoma.

`CON(C)C(=O)CNC(=O)OCC1c2ccccc2-c2ccccc21`: the TGI in [1], in assay [2], in assay [3], in [4], in assay [5] and in assay [6] was more than 100 µM in each case. Further, the TGI in assay [7] was more than 100 µM; in assay [8] it was more than 100 µM; in [9], more than 100 µM; in assay [10], 90.9 µM; in [11], more than 100 µM.
For `CC12C(=O)CC(CC1=O)C2(C)C`, the TGI in [1], in assay [2], in assay [3], in assay [4], in assay [5] and in [6] was more than 100 µM each time. The TGI in assay [7], in [8], in assay [9], in assay [10] and in [11] was more than 100 µM in each case.
Regarding `CCOC(=O)N/N=C(/N)c1cccc([N+](=O)[O-])c1`, the TGI in assay [1], in [2], in [3], in assay [4], in [5] and in assay [6] was more than 100 µM each time. In addition, the TGI in assay [7], in assay [8], in assay [9], in assay [10] and in [11] was more than 100 µM in each case.
Consider `COc1ccc2ccccc2c1/C=C/C(=O)c1ccccc1`, for which the TGI in [1] turned out to be 8.32 µM; in assay [2], 3.76 µM; in assay [3] it was 9.4 µM; in assay [4], 4.17 µM; in assay [5] it was 16.1 µM; in assay [6] it was 11.2 µM. The TGI in [7] came out at 9.62 µM; in assay [8], 6.28 µM; in assay [9] it was 17.9 µM; in assay [10], 4.33 µM; in assay [11] it was 9.35 µM.
`N=C(N)c1ccc(C(NC(=O)CNS(=O)(=O)c2ccc3ccccc3c2)P(=O)(Oc2ccccc2)Oc2ccccc2)cc1` (stereo not given): the TGI in [1], in assay [2], in assay [3], in [4], in assay [5] and in assay [6] was more than 100 µM in each case. The TGI in assay [7], in assay [8], in assay [9], in [10] and in [11] was more than 100 µM in each case.
Regarding `COC(CNC(=O)C(C)NC(=O)CCc1ccccc1)OC` (stereo not given), the TGI in assay [1], in [2], in assay [3], in [4], in assay [5] and in assay [6] was more than 100 µM in each case. Also, the TGI in assay [7], in assay [8], in [9], in assay [10] and in [11] was more than 100 µM in each case.
On to `C[N+](C)(C)CC1CCCCCCCCCCC1=O` (stereo not given), for which the TGI in assay [1], in assay [2], in assay [3], in [4], in assay [5] and in [6] was more than 100 µM each time. Moreover, the TGI in assay [7], in assay [8], in assay [9], in assay [10] and in assay [11] was more than 100 µM in each case.
For the molecule `C=CC(CCc1ccc(C(=O)OCC)cc1)c1c(N)nc(N)[nH]c1=O` (stereo not given), the TGI in assay [1], in assay [2], in [3], in assay [4], in assay [5] and in assay [6] was more than 100 µM in each case. The TGI in assay [7], in assay [8], in [9], in [10] and in assay [11] was more than 100 µM in each case.
In the case of `CCOP(C)(=O)C(N)Cc1ccc(OC)c(OC)c1` (stereo not given), the TGI in assay [1], in assay [2], in [3], in assay [4], in assay [5] and in [6] was more than 100 µM throughout. In addition, the TGI in assay [7], in assay [8], in assay [9], in assay [10] and in assay [11] was more than 100 µM each time.
Regarding `NC(Cc1ccccc1)C(=O)N[C@H]1c2ccsc2/C(=N/O)[C@H]1O` (stereo not given in full), the TGI in assay [1], in [2], in assay [3], in assay [4], in [5] and in [6] was more than 100 µM throughout. The TGI in assay [7], in [8], in assay [9], in [10] and in assay [11] was more than 100 µM each time.
As to `CCN(CC)C(=S)N/N=C(/C)c1cccc(/C(C)=N\NC(=S)N(CC)CC)n1`, the TGI in assay [1] was 16.9 µM; in [2], 6.36 µM; in assay [3] it was 7.32 µM; in assay [4] it was more than 100 µM; in assay [5] it was 8.2 µM; in assay [6] it was 5.43 µM. The TGI was found to be 3.63 µM in assay [7]; 11.6 µM in assay [8]; 3.88 µM in assay [9]; 3.77 µM in [10]; 8.15 µM in assay [11].
For `CCOCc1nc2c(OC)cc(-c3nc4ccc(N5CCN(C)CC5)cc4[nH]3)c(OC)c2[nH]1`, the TGI was more than 100 µM in assay [1]; 65.1 µM in [2]; more than 100 µM in assay [3]; 34 µM in assay [4]; 31.6 µM in assay [5]; more than 100 µM in [6]. The TGI in assay [7] was 35.3 µM; in assay [8], more than 100 µM; in [9], 36.3 µM; in assay [10], 21.1 µM; in assay [11], 34.6 µM.
As for `COc1ccc(C(=C(Cl)c2ccccc2)c2ccc(OC)cc2)cc1`, the TGI in assay [1], in assay [2], in assay [3], in assay [4], in [5] and in assay [6] was more than 100 µM each time. For the same molecule, the TGI in assay [7], in assay [8], in [9], in [10] and in [11] was more than 100 µM in each case.
In the case of `COc1cccc(-c2ccc3c4c2O[C@H]2C(=O)CC[C@@]5(O)[C@@H](C3)N(CC3CC3)CC[C@]425)c1`, the TGI in [1] turned out to be 41.6 µM; in assay [2] it was 50.7 µM; in assay [3] it was 31.4 µM; in assay [4] it was 27.9 µM; in assay [5] it was 28 µM; in assay [6], 34.5 µM. For the same molecule, the TGI is 28.1 µM in assay [7]; 28.6 µM in assay [8]; more than 100 µM in assay [9]; 40.5 µM in [10]; 32.7 µM in assay [11].
In the case of `CCN(CC)C(=O)Cn1c(C)cc2ccccc21`, the TGI in assay [1], in [2], in assay [3], in assay [4], in assay [5] and in assay [6] was more than 100 µM in each case. Moreover, the TGI in assay [7], in [8], in assay [9], in [10] and in assay [11] was more than 100 µM each time.
For the molecule `CN1CCC(O)(C(C)(C)C)CC1`, the TGI in assay [1], in [2], in assay [3], in assay [4], in assay [5] and in [6] was more than 100 µM in each case. The TGI in [7], in assay [8], in assay [9], in assay [10] and in assay [11] was more than 100 µM in each case.
In the case of `Oc1ccc(-c2nc(-c3cccnc3)c(-c3ccc(Cl)cc3)[nH]2)cc1`, the TGI came out at 28.6 µM in assay [1]; 24 µM in assay [2]; 23.3 µM in [3]; 17.9 µM in assay [4]; 27.2 µM in [5]; 26.8 µM in assay [6]. Moreover, the TGI in assay [7] was 26.1 µM; in assay [8], more than 100 µM; in [9], 32.1 µM; in assay [10], 36.7 µM; in assay [11], 25.9 µM.
`c1ccc2c(c1)ccn2CCc1c[nH]c2ccccc12`: the TGI in [1], in [2], in assay [3], in assay [4], in [5] and in assay [6] was more than 10 µM in each case. Further, the TGI in [7], in assay [8], in assay [9], in assay [10] and in assay [11] was more than 10 µM throughout.
For `O=C1C=CC[C@H]2O[C@@H](COC(=O)Cc3ccccc3)C[C@H]2O1`, the TGI in [1] was more than 100 µM; in assay [2], more than 100 µM; in [3] it was 85.9 µM; in assay [4], more than 100 µM; in assay [5] it was more than 100 µM; in [6], more than 100 µM. The TGI in assay [7] was more than 100 µM; in assay [8], more than 100 µM; in assay [9] it was 74.4 µM; in assay [10], 65.2 µM; in [11], more than 100 µM.
As to `COc1cc(C(=O)N(Cc2cccnc2)C(=S)N(Cc2cccnc2)C(=O)c2cc(OC)c(OC)c(OC)c2)cc(OC)c1OC`, the TGI in assay [1] was more than 100 µM; in assay [2] it was more than 100 µM; in assay [3], 43.5 µM; in assay [4] it was more than 100 µM; in assay [5], more than 100 µM; in [6] it was more than 100 µM. The TGI in assay [7] was more than 100 µM; in assay [8] it was more than 100 µM; in [9] it was more than 100 µM; in assay [10], more than 100 µM; in assay [11] it was 73.9 µM.
